Patent US8293776B2, “Compositions and methods for treating inflammatory conditions of the bowel” (The Regents of the University of Michigan, priority 2008, dated 2012)
“Also recorded” adds a separate entry of the source.

Legend:
[1] = mouse, in vivo
Excerpt: The scores were compared to the Naïve cohort.
Colonic mucosal and mesenteric blood flow measurements.

[2] = tested on: DSS colitis mice; assay: DSS colitis in mice, transanal treatment: body weight, fecal blood, histology, apoptosis; format: in vivo, C57BL/6 mice; conditions: for weight loss after 7 days (body weight change, FIG. 10B): 2.5% DSS, DCL and Losartan 10× (2,500 μg per dose), Candesartan 1× (250 μg per dose), mean±SD, placebo −15.81±6.59; for weight loss after 7 days (body weight change, FIG. 10B) / period before developing heme positive stools: transanal daily; for weight loss after 1 week (percentage change from baseline body weight) / period before developing heme positive stools: DSS; for weight loss after 1 week (percentage change from baseline body weight): transanal daily 7 days, placebo 15.8±6.5, P<0.001 versus placebo; for period before developing heme positive stools: placebo 5.64±1.22 days
Method: Animals. Specific pathogen-free male, 8-week old C57BL/6 mice (Taconic Farms Inc, Germantown, N.Y.) were maintained in a 12-h night rhythm at 23° C. and a relative humidity of 40-60%. Animals were fed standard rodent chow (LabDiet 5001Rodent Diet, PMI Nutrition International, LLC, Brentwood, Mo.) ad libitum. All experiments were approved by the University Committee on Use and Care of Animals at the University of Michigan. Experimental colitis design. Dextran sodium sulfate (DSS) was administered through drinking water for 7 days. Mice were randomly divided into 5 groups. In the DSS+placebo group, mice were given […] (total volume 0.25 ml) each day as a control. […] A[…]-A were given at 10-fold higher doses (losartan and […]: 10 mg/kg/day, candesartan: 1 mg/kg/day) than typically given systemically, and daily dosing was continued for 7 days. The study drugs were administered using a blunt needle via the […] route. Testing conducted during development of embodiments of the invention characterized that this amount of drug evenly coated the entire colon. A separate group of mice contained naive mice as an additional control group which received plain drinking water ad libitum, and received only water (0.25 ml, […]) without AT 1 aR-A. Harvesting. Mice were euthanized 7 days after DSS by carbon dioxide asphyxiation. […] Formalin preserved sections of distal colon were preserved in paraffin, sectioned transversely (5 μm) and stained with hematoxylin and eosin (H&E). The remaining colon was immediately processed for mucosal cell isolation. Assessment of colitis. The body weight of each mouse, stool characteristics, and intestinal bleeding were recorded. All animals were evaluated daily. Occult bleeding was tested using a hemoccult-card test (Beckman Coulter Inc, Fullerton, Calif.). Histologic grading of colitis was performed in a masked fashion (investigator blinded to the study group) according to previously described methods. (See, e.g., Spencer et al., et al. Dig Dis Sci 2007; 52:1060-70). Crypt shortening and distortion, together with inflammatory infiltrative thickening of the lamina propria, were assigned a score 0 (normal) through 4 (complete loss of crypt, ulceration, and severe thickening of lamina propria). The individual colitis score (0-4) from four quadrants of a left-sided colonic section were summed, such that the maximum score for a given section was 16, and the minimum score was 0. The mean of at least 2 sections were assessed in this manner for each mouse. Epithelial cell apoptosis assays. A terminal deoxynucleotidyl transferase biotin-dUTP nick end labeling (TUNEL) staining method was used to detect apoptosis, according to manufacturer's instructions (APOPTAG PLUS Peroxidase InSitu Apoptosis Detection Kit, Chemicon International Inc, Temecula, Calif.), with slight modification. Slides were incubated with only one-third of the recommended concentration of TdT enzyme, in order to avoid over-staining. Assessment of apoptosis consisted of separate counting of all TUNEL positive EC in all well oriented crypts and villi separately, and dividing the total number of counted apoptotic cells per number of analyzed crypts and villi, respectively. Apoptotic Index in the region of villi is expressed as the number of TUNEL positive cells per one villus. The addition of both crypt and villus apoptotic indices is expressed as the apoptotic index per crypt-villus complex (at 20× magnification).

[3] = tested on: mucosal RNA of regulatory factors associated with inflammatory bowel disease; assay: Mucosal RNA of regulatory factors by RT-PCR, DSS mice, oral administration; format: in vivo; conditions: oral therapy, 7 days
Method: Experiments were conducted during development of embodiments of the invention in order to determine if AT1a antagonists or derivatives thereof could treat signs and symptoms of inflammatory bowel disease (e.g., inflammatory conditions of the intestine) when administered orally. Materials and methods were used as described in Example 3 with the following exceptions. AT1a antagonists or derivatives thereof were suspended in water. Each dose was given via the oral route using a blunt tipped needle by gavage directly into the stomach of each mouse. Dosing was daily in a single administration over a period of seven days. Realtime PCR was utilized to measure the abundance of mucosal RNA of several regulatory factors associated with inflammatory bowel disease. Factors studied were: TNF-α(tumor necrosis factor-alpha); interleukin-1b (IL-1b); IL-6; IL-10; transforming growth factor-beta (TGF-b) and Foxp3 (a T-cell regulatory factor). […] Realtime PCR was also utilized to measure the abundance of mucosal RNA of several additional regulatory factors associated with inflammatory bowel disease. IL-12p40, the regulatory factor for interleukin-12 (IL-12), and a key regulator for the up-regulation of interferon gamma (IFN-g); IFN-g; […]

[4] = tested on: AT1a receptor; conditions: cited from earlier work
[5] = in vivo; cited from earlier work
[6] = Blood pressure and heart rate by tail-cuff in DSS mice after transanal treatment; format: in vivo, C57BL/6 mice; conditions: day 6 of DSS; for systolic blood pressure change (Delta BP, post − pre treatment): 1 hour before and 2 hr after treatment; for heart rate change: compared with naïve group
Excerpt: Measurements of Blood Pressure and Heart Rate. […] The system was designed to perform all functions automatically, including a programmable routine of cuff inflation and deflation, analysis and assignment of pulse rate and blood pressure, and recording of data electronically. To avoid variations in blood pressures, results were expressed using % Delta Blood Pressure (percent change in systolic pressures prior to and after treatment). Heart rate was also expressed as the change in rate before and after final dosing of […] drug/placebo.

[7] = biological target: T1, AT1a receptor (Rattus norvegicus, UniProt P25095); assay: Ang II-dependent NF-κB-luciferase reporter assay in HepG2-AR cells; format: cell-based; conditions: Ang II 1 μM, 16 hours, Ang II alone = 100% induction, read-out: inhibition of NF-κB activation
T1 construct: expressed in transfected cells; host or cells: HepG2 (HepG2-AR), stably transfected
T1 sequence (P25095 1-359): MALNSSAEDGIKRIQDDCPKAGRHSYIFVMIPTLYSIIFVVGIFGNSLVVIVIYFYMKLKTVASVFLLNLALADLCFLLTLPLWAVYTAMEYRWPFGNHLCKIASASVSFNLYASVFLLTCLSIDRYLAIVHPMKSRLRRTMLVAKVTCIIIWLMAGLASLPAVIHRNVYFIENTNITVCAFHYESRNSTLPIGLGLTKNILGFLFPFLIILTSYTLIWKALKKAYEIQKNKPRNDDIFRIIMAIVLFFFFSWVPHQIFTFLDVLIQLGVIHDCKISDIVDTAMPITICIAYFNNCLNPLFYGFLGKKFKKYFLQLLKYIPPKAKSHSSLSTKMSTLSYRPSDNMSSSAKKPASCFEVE
Excerpt: In vitro assessment of AT1aR antagonism. […] This model makes use of the fact that Ang II-dependent stimulation of the AT1a receptor results in rapid activation of the NF-κB transcription factor. In this model, HepG2-AR cells, which stably express the AT1a receptor, were transiently transfected with an NF-κB-luciferase reporter plasmid and a control renilla plasmid (to correct for transfection efficiency). […] Cells were harvested and the luciferase/renilla ratio determined using the Promega Dual Luciferase Assay Kit. […] Loss of Ang II-dependent luciferase induction (measured by luminometer; LMax; Molecular Devices), due to the presence of receptor blockade was then calculated and used to indicate the extent of successful blockade of the AT1a receptor signaling pathway.
HepG2-AR cells, which stably express the AT1a receptor, were transiently transfected with an NF-κB-luciferase reporter plasmid and a control renilla plasmid (to correct for transfection efficiency). […] Cells were harvested and the luciferase/renilla ratio determined using a luciferase assay kit (e.g., Promega Dual Luciferase Assay Kit). […] The fold induction in the presence of varying doses of inhibitor was then converted to a percentage of this maximal induction.

[8] = biological target: AT1a receptor; conditions: read-out: IC50 against the binding of Ang II to the AT1a receptor; cited from earlier work
[9] = tested on: Ang I-infused dogs; conditions: i.v., 1 mg/kg; cited from earlier work

## CCCCc1ncc(CO)n1Cc1ccc(-c2ccccc2-c2nn[nH]n2)cc1 [DCL, des-chloro losartan]
[1]
  colonic blood flow at the mucosal level: failed to change
  mesenteric blood flow: failed to change
[2]
  weight loss after 7 days (body weight change, FIG. 10B): −2.02±4.34%
  weight loss after 1 week (percentage change from baseline body weight): 2.02±4.34%
  period before developing heme positive stools: 7.00 ± 1.4 days
[3]
  mucosal RNA of ADAM17: marked decline in ADAM17
[4]
  receptor blockade function compared with losartan: nearly the same receptor blockade function as losartan
[5]
  oral activity: lacks oral activity
[6]
  systolic blood pressure change (Delta BP, post − pre treatment): did not significantly change BP; also recorded: no change in systolic blood pressure
  heart rate change: not significantly different

## CCOc1nc2cccc(C(=O)O)c2n1Cc1ccc(-c2ccccc2-c2nnn[nH]2)cc1 [candesartan]
[1]
  colonic blood flow at the mucosal level: 0.92±0.20
  mesenteric blood flow: 1.56±0.33
[2]
  weight loss after 7 days (body weight change, FIG. 10B): −0.63±1.63%
  weight loss after 1 week (percentage change from baseline body weight): 0.63±1.63%
  period before developing heme positive stools: 8.0 ± 0.0 days
[6]
  systolic blood pressure change (Delta BP, post − pre treatment): decline in systolic BP
  heart rate change: declined significantly
[6]; listed as Candesartan
  systolic blood pressure change (Delta BP, post − pre treatment): resulted in a decline
[6]; listed as candasartan
  systolic blood pressure change (Delta BP, post − pre treatment): significant decline in blood pressure

## CCCCc1nc(Cl)c(CO)n1Cc1ccc(-c2ccccc2-c2nn[nH]n2)cc1 [losartan]
[7]
  inhibition at 60 µM: 90%
[1]
  colonic blood flow at the mucosal level: 0.88±0.32
  mesenteric blood flow: 1.97±0.58
[2]
  weight loss after 7 days (body weight change, FIG. 10B): 0.07±2.50%
  weight loss after 1 week (percentage change from baseline body weight): 0.07±2.50%
  period before developing heme positive stools: 6.8 ± 2.7 days
[3]
  mucosal RNA of IL-12p40, IFN-g, IL-17, AT1aR and ADAM17: marked decline in several of these factors
[8]
  IC50: 50 nM
[6]
  systolic blood pressure change (Delta BP, post − pre treatment): significant decline in blood pressure
  heart rate change: not significantly different
[6]; listed as Losartan
  systolic blood pressure change (Delta BP, post − pre treatment): decline in systolic BP; also recorded: resulted in a decline
[9]
  time a ≧20 mmHg drop in mean arterial blood pressure (MABP) was maintained: 30 min
